One compound from paper PMC5478473 (Nature chemical biology, 2017) can be followed below.

The target in the test is T1, Tet(50) (unidentified prokaryotic organism, UniProt A0A059WYP6).
T1 sequence (A0A059WYP6 1-388): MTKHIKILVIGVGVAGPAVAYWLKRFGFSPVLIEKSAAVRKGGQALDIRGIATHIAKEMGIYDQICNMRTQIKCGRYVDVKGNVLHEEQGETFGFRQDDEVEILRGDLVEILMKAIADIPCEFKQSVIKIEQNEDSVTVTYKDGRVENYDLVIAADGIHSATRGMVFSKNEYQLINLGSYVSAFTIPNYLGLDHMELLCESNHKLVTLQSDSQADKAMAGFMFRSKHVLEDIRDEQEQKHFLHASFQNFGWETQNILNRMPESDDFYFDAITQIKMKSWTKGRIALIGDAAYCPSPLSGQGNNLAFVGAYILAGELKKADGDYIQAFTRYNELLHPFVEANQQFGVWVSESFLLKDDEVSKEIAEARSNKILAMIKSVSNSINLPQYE

Each structure is given as a SMILES string.

With `CN(C)[C@@H]1C(O)=C(C(N)=O)C(=O)[C@@]2(O)C(O)=C3C(=O)c4c(O)ccc(Cl)c4[C@@](C)(O)[C@H]3C[C@@H]12` [chlortetracycline], the Michaelis constant (Km) (as a rule, the substrate concentration at which the rate is half of its maximum) came out at 6.3 µM.
